From patent US9926275B2 (priority 2013, dated 2018)
Read-outs that look alike come from different tables or passages of the source.

Columns and labels:
[1] = target: T1, CB1 receptor (Homo sapiens, UniProt P21554); assay: DiscoveRx HitHunter cAMP XS+ assay in cAMP Hunter cell line, allosteric modulation of CP55,940 response; format: cell-based; details: for Emax: read-out: cAMP activity ECMax (%)
Protocol: Once it was established that the cells were healthy and growing normally, cells were passaged from flasks using cell dissociation reagent buffer and seeded into white walled clear bottom 384-well microplates for compound profiling. For profiling, cells were seeded at a density of 10000 cells per well in a total volume of 20 μL and were allowed to adhere and recover overnight prior to compound addition. Cells were treated the following day using the protocols shown below. cAMP modulation was determined using the DiscoveRx HitHunter cAMP XS+ assay.
Media was aspirated from cells and replaced with 10 μL 1:1 HBSS/Hepes: cAMP XS+ Ab reagent. Agonist (CP55,940) dose curves were performed to determine the EC20 value for the testing with the compounds of the present technology. 5 μL of 4× agonist was added to each well with an equal concentration of vehicle present. EC20 agonist concentration was determined directly from agonist dose curve.
(§1) For allosteric determination, cells were preincubated with compound followed by agonist challenge at the EC20 concentration of the agonist. 5 μL of 4× compound was added to cells and incubated at 37° C. for 30 minutes. 5 μL of 4× EC20 agonist was added to cells and incubated at 37° C. for 30 minutes.
Signal Detection: After appropriate compound incubation, assay signal was generated through incubation with 20 μL cAMP XS+ED/CL lysis cocktail for one hour followed by incubation with 20 μL cAMP XS+EA reagent for three hours at room temperature. Microplates were read following signal generation with a PerkinElmer Envision™ instrument for chemiluminescent signal detection.
(§2) Data Analysis: Dose curves were plotted using GraphPad Prism or Activity Base. The percentage activity is calculated using the following formula: % Activity=100%×(1−(mean RLU of test sample−mean RLU of MAX control)/(mean RLU of vehicle control [EC20 for PAM]−mean RLU of MAXcontrol).
(§3) Agonist (CP55,940) dose curves were performed for the CNR1 PathHunter and cAMP Hunter cell lines. […] The cAMP assay was performed in the presence of 20 μM forskolin (EC80).
(§4) In Vitro Evaluation: The in vitro evaluation of the covalent allosteric modulators was performed using as described previously.

[2] = target: T1, CB1 receptor; assay: β-arrestin recruitment in CNR1 PathHunter cell line, allosteric modulation of CP55,940 response; format: cell-based; details: for Emax: read-out: β-arrestin activity EMax (%)
Protocol: as §1, §2, §3, §4

[3] = Table 1, preincubation with compound, then CP55,940 challenge, 20 μM forskolin
[4] = Table 1, preincubation with compound, then CP55,940 challenge, 20 μM forskolin, read-out: cAMP EC50
[5] = Table 1, CP55,940 as agonist, read-out: β-arrestin EC50
[6] = Table 2, covalent allosteric modulators, read-out: cAMP activity EC50 (nm)
[7] = Table 2, covalent allosteric modulators
[8] = Table 2, covalent allosteric modulators, read-out: β-arrestin activity EC50 (nm)

T1 sequence (P21554 whole entry): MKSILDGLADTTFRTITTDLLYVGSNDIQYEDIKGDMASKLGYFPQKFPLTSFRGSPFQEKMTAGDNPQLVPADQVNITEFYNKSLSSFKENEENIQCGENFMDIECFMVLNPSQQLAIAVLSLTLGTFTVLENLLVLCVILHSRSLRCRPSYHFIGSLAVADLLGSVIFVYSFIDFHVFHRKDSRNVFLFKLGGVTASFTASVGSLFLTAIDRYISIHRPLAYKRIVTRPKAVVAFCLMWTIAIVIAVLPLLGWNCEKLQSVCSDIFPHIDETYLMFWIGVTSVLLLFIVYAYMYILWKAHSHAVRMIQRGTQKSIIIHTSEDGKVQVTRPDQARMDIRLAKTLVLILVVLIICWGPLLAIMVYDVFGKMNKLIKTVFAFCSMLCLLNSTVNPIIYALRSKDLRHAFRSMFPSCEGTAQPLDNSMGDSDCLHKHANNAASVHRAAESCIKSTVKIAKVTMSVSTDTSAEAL

Structure (SMILES) | cAMP % inhibition [1, 3] [%] | EC50 [1, 4] [nM] | β-arrestin % inhibition ([2]; Table 1, CP55,940 as agonist) [%] | EC50 [2, 5] [nM] | other results
O=C(Nc1ccc(Oc2ccccc2)cc1)Nc1cccc(-c2cccc(N3CCCC3)n2)c1 [Compound 10k, 1-(4-Phenoxyphenyl)-3-(3-(6-(pyrrolidin-1-yl)pyridin-2-yl)phenyl)urea] | 91 | 750 | 123 | 115 | 
CCc1ccccc1NC(=O)Nc1cccc(-c2cccc(N3CCCC3)n2)c1 [Compound 10r, 1-(2-Ethylphenyl)-3-(3-(6-(pyrrolidin-1-yl)pyridin-2-yl)phenyl)urea] | 42 | 1190 ± 120 | 76 | 3320 | 
O=C(Nc1ccc(Cl)cc1)Nc1ccc(-c2cccc(N3CCCC3)n2)cc1 [Compound 51, 1-(4-Chlorophenyl)-3-(4-(6-(pyrrolidin-1-yl)pyridin-2-yl)phenyl)urea] | 11 | > 10000 | 109 | 206 | 
O=C(Nc1ccccc1)Nc1cccc(-c2cccc(N3CCCC3)n2)c1 [Compound 10q, 1-Phenyl-3-(3-(6-(pyrrolidin-1-yl)pyridin-2-yl)phenyl)urea] |  | 501 | 135 | 110 | 
O=C(Nc1cccc(-c2cccc(N3CCCC3)n2)c1)N1CCc2ccccc2C1 [Compound 10y, N-(3-(6-(Pyrrolidin-1-yl)pyridin-2-yl)phenyl)-3,4-dihydroisoquinoline-2(1H)-carboxamide] | 2.55 |  | 50 | 5340 | EC50 ([1]; read-out: cAMP EC50): > 10000 nM
O=C(Nc1cccc(-c2cccc(N3CCCC3)n2)c1)NC1CCCCC1 [Compound 10z, 1-Cyclohexyl-3-(3-(6-(pyrrolidin-1-yl)pyridin-2-yl)phenyl)urea] | 78 | 659 | 136 | 333 ± 30 | 
O=C(Nc1cccc(-c2cccc(N3CCCC3)n2)c1)Nc1ccccc1CCCCOC1CCCCO1 (stereo not drawn) [Compound 23c, 1-(3-(6-(Pyrrolidin-1-yl)pyridin-2-yl)phenyl)-3-(2-(4-((tetrahydro-2H-pyran-2-yl)oxy)butyl)phenyl)urea] | 20 | > 10000 | 69 | 6190 | 
Clc1ccc(-c2nnc(Nc3cccc(-c4cccc(N5CCCC5)n4)c3)o2)cc1 [Compound 45, 5-(4-Chlorophenyl)-N-(3-(6-(pyrrolidin-1-yl)pyridin-2-yl)phenyl)-1,3,4-oxadiazol-2-amine] | 20 | 4050 | 70 | 3210 | 
COc1ccccc1NC(=O)Nc1cccc(-c2cccc(N3CCCC3)n2)c1 [Compound 10j, 1-(2-Methoxyphenyl)-3-(3-(6-(pyrrolidin-1-yl)pyridin-2-yl)phenyl)urea] | 0 | > 10000 | 93 | 1230 | 
O=C(Nc1cccc(-c2cccc(N3CCCC3)n2)c1)Nc1ccc(Cl)cc1CCCCOC1CCCCO1 (stereo not drawn) [Compound 23a, 1-(4-Chloro-2-(4-((tetrahydro-2H-pyran-2-yl)oxy)butyl)phenyl)-3-(3-(6-(pyrrolidin-1-yl)pyridin-2-yl)phenyl)urea] | 41 | 820 | 117 | 1090 | 
O=C(Nc1cccc(-c2cccc(N3CCCC3)n2)c1)Nc1ccc(Cl)cc1C#CCCO [Compound 22a, 1-(4-Chloro-2-(4-hydroxybut-1-yn-1-yl)phenyl)-3-(3-(6-(pyrrolidin-1-yl)pyridin-2-yl)phenyl)urea] | 49 | 6490 | 83 | 4890 | 
COC(=O)c1ccccc1NC(=O)Nc1cccc(-c2cccc(N3CCCC3)n2)c1 [Compound 15, Methyl 2-(3-(3-(6-(pyrrolidin-1-yl)pyridin-2-yl)phenyl)ureido)benzoate] | 0.6 | > 10000 | 24 | 8520 | 
O=C(Nc1cccc(-c2cccc(N3CCCC3)n2)c1)Nc1ccc(Cl)cc1I [Compound 19a, 1-(4-Chloro-2-iodophenyl)-3-(3-(6-(pyrrolidin-1-yl)pyridin-2-yl)phenyl)urea] | 53 | 1270 | 118 | 1200 | 
[N-]=[N+]=Nc1ccc(NC(=O)Nc2cccc(-c3cccc(N4CCCC4)n3)c2)cc1 [GAT331] |  |  |  |  | EC50 [1, 6]: 297 nM; Emax [1, 7]: 128%; EC50 [2, 8]: 106 nM; Emax [2, 7]: 138%
S=C(Nc1ccc(Cl)cc1)Nc1cccc(-c2cccc(N3CCCC3)n2)c1 [Compound 32, 1-(4-Chlorophenyl)-3-(3-(6-(pyrrolidin-1-yl)pyridin-2-yl)phenyl)thiourea] | 77 | 830 | 110 | 276 | 
COc1cccc(NC(=O)Nc2cccc(-c3cccc(N4CCCC4)n3)c2)c1 [Compound 10i, 1-(3-Methoxyphenyl)-3-(3-(6-(pyrrolidin-1-yl)pyridin-2-yl)phenyl)urea] | 92 | 1790 | 109 | 497 | 
Cc1ccc(NC(=O)Nc2cccc(-c3cccc(N4CCCC4)n3)c2)cc1 [Compound 10n, 1-(3-(6-(Pyrrolidin-1-yl)pyridin-2-yl)phenyl)-3-(p-tolyl)urea] |  |  |  |  | cAMP % inhibition [1]: 122%; EC50 ([1]; cAMP EC50 nM): 764 nM; β-arrestin % inhibition [2]: 127%; EC50 ([2]; β-arrestin EC50 nM): 119 nM
O=C(Nc1ccc(Cl)cc1)Nc1cccc(-c2ccc(N3CCCC3)nc2)c1 [Compound 61, 1-(4-Chlorophenyl)-3-(3-(6-(pyrrolidin-1-yl)pyridin-3-yl)phenyl)urea] | 6 | > 10000 | 105 | 880 | 
O=C(Nc1cccc(-c2cccc(N3CCCC3)n2)c1)Nc1ccc(Cl)cc1CCCCO [Compound 24a, 1-(4-Chloro-2-(4-hydroxybutyl)phenyl)-3-(3-(6-(pyrrolidin-1-yl)pyridin-2-yl)phenyl)urea] | 82 | 1230 | 126 | 276 | 
O=C(Nc1ccc(C(=O)c2ccccc2)cc1)Nc1cccc(-c2cccc(N3CCCC3)n2)c1 [GAT300] |  |  |  |  | EC50 [1, 6]: 169 nM; Emax [1, 7]: 99.6%; EC50 [2, 8]: 28.4 nM; Emax [2, 7]: 106%
O=C(Nc1ccc(I)cc1)Nc1cccc(-c2cccc(N3CCCC3)n2)c1 [GAT205] |  |  |  |  | EC50 [1, 6]: 253 nM; Emax [1, 7]: 102%; EC50 [2, 8]: 11.5 nM; Emax [2, 7]: 105%
O=C(Nc1ccc(Cl)cc1)Nc1cccc(-c2cccc(N3CCCC3)n2)c1 [Compound 10a, 1-(4-Chlorophenyl)-3-(3-(6-(pyrrolidin-1-yl)pyridin-2-yl)phenyl)urea] |  |  |  |  | cAMP % inhibition [1]: 108%; β-arrestin % inhibition [2]: 109%
O=C(Nc1cccc(-c2cccc(N3CCCC3)n2)c1)Nc1ccc(Cl)c(CCCCO)c1 [Compound 24b, 1-(4-Chloro-3-(4-hydroxybutyl)phenyl)-3-(3-(6-(pyrrolidin-1-yl)pyridin-2-yl)phenyl)urea] | 111 | 1420 | 125 | 1350 | 
O=C(Nc1cccc(-c2cccc(N3CCCC3)n2)c1)Nc1cccc2ccccc12 [Compound 10w, 1-(Naphthalen-1-yl)-3-(3-(6-(pyrrolidin-1-yl)pyridin-2-yl)phenyl)urea] | 69 | 1260 ± 125 | 109 | 1270 | 
CCc1c(C(=O)NCCc2ccc(N3CCCCC3)cc2)[nH]c2ccc(N=[N+]=[N-])cc12 [GAT206] |  |  |  |  | EC50 [1, 6]: 391 nM; Emax [1, 7]: 89%; EC50 [2, 8]: 28 nM; Emax [2, 7]: 106%
O=C(Nc1ccc(Cl)cc1)Nc1cccc(-c2ccnc(N3CCCC3)c2)c1 [Compound 57, 1-(4-Chlorophenyl)-3-(3-(2-(pyrrolidin-1-yl)pyridin-4-yl)phenyl)urea] | 50 | 9790 | 111 | 77 | 
Cc1cc(Cl)ccc1NC(=O)Nc1cccc(-c2cccc(N3CCCC3)n2)c1 [Compound 10s, 1-(4-Chloro-2-methylphenyl)-3-(3-(6-(pyrrolidin-1-yl)pyridin-2-yl)phenyl)urea] | 18 | > 10000 | 109 | 209 | 
